In US10953027B2, “Active agents and methods of their use for the treatment of metabolic disorders and nonalcoholic fatty liver disease” (Flagship Pioneering Innovations V, Inc., priority 2018, dated 2021):

Experiments:
Assay type in all cases: in vitro ADME
[1] = Assay 1. Stability in Simulated Gastric Fluid (SGF); settings: 1 μM, 37° C., SGF pH 1.6 with pepsin
Outline: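 Acylated compounds at a final 1 μM (diluted from 1 mM DMSO stock) were incubated at 37 °C in SGF of pH 1.6 NaCl buffer with FaSSIF powder and 0.1 mg/mL pepsin. Aliquots were quenched with acetonitrile at T0 and regular intervals, and degradation rates were determined by LC/MS.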

[2] = Assay 2. Stability in Simulated Intestinal Fluid (SIF); settings: 1 μM, 37° C., SIF pH 6.7 with pancreatin
Outline: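 Acylated compounds at 1 μM (from 1 mM DMSO stock) in fresh SIF: FaSSIF with pancreatin in pH 6.7 phosphate buffer, agitated at 37 °C. Aliquots from T0 onward quenched with 1 volume acetonitrile; LC/MS gives degradation rates.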

[3] = Assay 3. Fecal Incubation Stability; settings: 1 or 10 μM, human fecal slurry, anaerobic
Protocol: Assay 3. Fecal Incubation Stability. This assay was used to assess the stability of an acylated active agent in a large intestine. All experiments were performed in an anaerobic chamber containing 90% nitrogen, 5% hydrogen and 5% carbon dioxide. Human fecal matter in a slurry (15% WV) is added to 96 well plates containing YCFA media or other suitable media (1.6 mL). Compounds were added to each individual well to reach a final analyte concentration of 1 or 10 μM, and the material was mixed by pipetting. At set time points a sample was removed, quenched with acetonitrile, and analyzed by LC/MS.

SMILES | Assay 1 (SGF) (% Remaining @ 1 hours) [1] | Assay 2 (SIF) (% @ Remaining 4 hours) [2] | Assay 3 (% Remaining at 24 h) [3]
CCC(=O)O[C@@H]1[C@@H](OC(=O)CC)[C@H](C)O[C@H](OC(=O)/C=C/c2c[nH]c3ccccc23)[C@@H]1OC(=O)CC [Compound 139, (2R,3R,4R,5S,6S)-6-methyl-3,4,5-tris(propanoyloxy)oxan-2-yl (2E)-3-(1H-indol-3-yl)prop-2-enoate] | B (B: 25-75% of the tested compound remaining) | A (A: <25% of the tested compound remaining) | B (B: 25-75% of the tested compound remaining)
CCCC(=O)O[C@@H]1[C@@H](OC(=O)CCC)[C@H](Oc2ccccc2C(=O)O)OC[C@H]1OC(=O)CCC [Compound 227, 2-{[(2S,3R,4S,5R)-3,4,5-tris(butanoyloxy)oxan-2-yl]oxy}benzoic Acid] | C (C: >75% of the tested compound remaining) | A (A: <25% of the tested compound remaining) | A (A: <25% of the tested compound remaining)
CC(=O)O[C@H]1O[C@H](C(=O)O)[C@@H](OC(C)=O)[C@H](OC(C)=O)[C@H]1OC(C)=O [Compound 195, (2S,3S,4S,5R,6R)-3,4,5,6-tetraacetoxytetrahydro-2H-pyran-2-carboxylic Acid] | C (C: >75% of the tested compound remaining) | C (C: >75% of the tested compound remaining) | B (B: 25-75% of the tested compound remaining)
O=C(Cc1c[nH]c2ccccc12)Oc1cc(C(=O)O)cc(OC(=O)Cc2c[nH]c3ccccc23)c1OC(=O)Cc1c[nH]c2ccccc12 [Compound 237, 3,4,5-tris({[2-(1H-indol-3-yl)acetyl]oxy})benzoic Acid] | C (C: >75% of the tested compound remaining) | A (A: <25% of the tested compound remaining) | A (A: <25% of the tested compound remaining)
CCC(=O)O[C@H]1[C@H](OC(=O)/C=C/c2c[nH]c3ccccc23)OC[C@@H](OC(=O)CC)[C@H]1OC(=O)CC [Compound 124, (2S,3R,4R,5R)-3,4,5-tris(propanoyloxy)oxan-2-yl (2E)-3-(1H-indol-3-yl)prop-2-enoate] | C (C: >75% of the tested compound remaining) | A (A: <25% of the tested compound remaining) | A (A: <25% of the tested compound remaining)
O=C(Cc1c[nH]c2ccccc12)O[C@H]1OC[C@H](OC(=O)Cc2c[nH]c3ccccc23)[C@H](OC(=O)Cc2c[nH]c3ccccc23)[C@H]1OC(=O)Cc1c[nH]c2ccccc12 [Compound 180, (2R,3R,4S,5S)-3,4,5-tris({[2-(1H-indol-3-yl)acetyl]oxy})oxan-2-yl 2-(1H-indol-3-yl)acetate] | B (B: 25-75% of the tested compound remaining) | A (A: <25% of the tested compound remaining) | A (A: <25% of the tested compound remaining)
CCCC(=O)O[C@@H]1[C@@H](OC(=O)CCC)[C@@H](OC)OC[C@@H]1OC(=O)CCC [Compound 85, (2S,3R,4S,5S)-3,5-bis(butanoyloxy)-2-methoxyoxan-4-yl Butanoate] | B (B: 25-75% of the tested compound remaining) | B (B: 25-75% of the tested compound remaining) | B (B: 25-75% of the tested compound remaining)
O=C(CCc1c[nH]c2ccccc12)O[C@@H]1OC[C@H](OC(=O)CCc2c[nH]c3ccccc23)[C@H](OC(=O)CCc2c[nH]c3ccccc23)[C@H]1OC(=O)CCc1c[nH]c2ccccc12 [Compound 102, (2S,3R,4S,5S)-3,4,5-tris({[3-(1H-indol-3-yl)propanoyl]oxy})oxan-2-yl 3-(1H-indol-3-yl)propanoate] | B (B: 25-75% of the tested compound remaining) | A (A: <25% of the tested compound remaining) | A (A: <25% of the tested compound remaining)
CO[C@@H]1OC[C@@H](OC(C)=O)[C@H](OC(C)=O)[C@H]1OC(C)=O [Compound 45, (2R,3R,4S,5R)-2-methoxytetrahydro-2H-pyran-3,4,5-triyl Triacetate] | C (C: >75% of the tested compound remaining) | B (B: 25-75% of the tested compound remaining) | B (B: 25-75% of the tested compound remaining)
CC(=O)OC[C@H]1O[C@@H](OC(C)=O)[C@H](N)[C@@H](OC(C)=O)[C@@H]1OC(C)=O [Compound 194, (2S,3R,4R,5S,6R)-6-(acetoxymethyl)-3-aminotetrahydro-2H-pyran-2,4,5-triyl Triacetate] | C (C: >75% of the tested compound remaining) | A (A: <25% of the tested compound remaining) | C (C: >75% of the tested compound remaining)
CO[C@H]1OC[C@@H](OC(C)=O)[C@H](OC(C)=O)[C@H]1OC(C)=O [Compound 46, (2S,3R,4S,5R)-2-methoxytetrahydro-2H-pyran-3,4,5-triyl Triacetate] | C (C: >75% of the tested compound remaining) | B (B: 25-75% of the tested compound remaining) | B (B: 25-75% of the tested compound remaining)
CCCC(=O)OC[C@H]1O[C@H](OC)[C@H](OC(=O)CCC)[C@@H](OC(=O)CCC)[C@@H]1OC(=O)CCC [Compound 87, [(2R,3R,4S,5R,6S)-3,4,5-tris(butanoyloxy)-6-methoxyoxan-2-yl]methyl Butanoate] | B (B: 25-75% of the tested compound remaining) | A (A: <25% of the tested compound remaining) | A (A: <25% of the tested compound remaining)
CCC(=O)O[C@@H]1[C@@H](OC(=O)CC)[C@H](OC(=O)Cc2c[nH]c3ccccc23)OC[C@H]1OC(=O)CC [Compound 109, (2S,3R,4S,5R)-2-{[2-(1H-indol-3-yl)acetyl]oxy}-4,5-bis(propanoyloxy)oxan-3-yl Propanoate] | C (C: >75% of the tested compound remaining) | A (A: <25% of the tested compound remaining) | A (A: <25% of the tested compound remaining)
CCC(=O)O[C@@H]1[C@@H](OC(=O)CC)[C@H](C)O[C@@H](OC(=O)Cc2c[nH]c3ccccc23)[C@@H]1OC(=O)CC [Compound 147, (2S,3R,4R,5S,6S)-2-{[2-(1H-indol-3-yl)acetyl]oxy}-6-methyl-4,5-bis(propanoyloxy)oxan-3-yl Propanoate] | C (C: >75% of the tested compound remaining) | A (A: <25% of the tested compound remaining) | A (A: <25% of the tested compound remaining)
